Results: patent publication US10662225B2, “Backbone cyclized inhibitory peptides of myeloid differentiation factor 88 (MyD88)” (Yissum Research Development Company of the Hebrew …, priority 2016, dated 2020)
Numbered stars: 1 amine (or outer) side, 2 acyl side, 3 side chain; on linkers, the order of the positions; unused ones are H or OH. Bridge positions count the residues as written; N and C are the ends. Square brackets hold non-standard residues; d marks the D form. Ends that are not written are not given here. CO = O=C([*:1])[*:2]

How the values were obtained:
[1] = system: MyD88-dependent signaling; assay: Library screen: TNFα production by U937 macrophage cells stimulated with PAM3Csk; format: cell-based, human; settings: PAM3Csk overnight, peptide concentration estimated 2-4 μM
Protocol: FIG. 4. Screening results of the peptide library of 16 compounds. Human macrophage U937 cells were stimulated with PAM3csk overnight in the absence or presence of each of the cyclic peptides. Human TNFα levels in the supernatants were determined by ELISA. […].
The backbone cyclic library of 16 compounds synthesized in Example 3 was screened for inhibition of MyD88-dependent signaling through innate immune receptors employing the human macrophage cell line U937. […] The concentration of the cyclic peptides in the library was estimated to be 2-4 μM.

[2] = system: MyD88-dependent signaling; assay: TNFα production by THP-1 derived macrophages stimulated with PAM3csk; format: cell-based, human; settings: THP-1 macrophages, PAM3csk overnight
Protocol: FIG. 5. Human monocytic THP-1 cells were differentiated to macrophages and were stimulated with PAM3csk overnight in the absence or presence of the cyclic 4-carbon bridge peptide or 6-carbon bridge peptide. TNFα levels in the supernatants were determined by ELISA.
Both cyclic peptides were synthesized with the addition of a tryptophan group to the N-terminus to enable accurate quantification of the molecules.

MyD88 = target: T1, MyD88 (Mus musculus, UniProt P22366); assay: IL-18-induced IFN-γ secretion by MOG35-55 specific T cells (ELISA); format: cell-based
T1 construct: endogenous in cells; host or cells: MOG35-55 specific T cells
Protocol: FIG. 1. MyD88 inhibitor linear peptide down-regulates IL-18-induced T-cell interferon gamma (IFN-γ) production in vitro. A: MOG35-55 specific T cells were incubated with MIP (SEQ ID NO: 1), or the scrambled version of MIP (MIPscr, PTDLVRG, SEQ ID NO: 5), or without peptide (control) for 2 h. T-cells were then plated with (right side of graph) or without (left side of graph) 30 ng/ml IL-18 for 22 h and IFN-γ production was measured by ELISA. Asterisks denote P<0.0001 compared to no inhibitor peptide or MIPscr. B: MOG35-55 specific T cells were incubated with MIP (SEQ ID NO: 1), or the scrambled version of MIP (MIPscr, SEQ ID NO: 5), or without peptide (control) for 2 h. T-cells were then plated with (right side of graph) or without (left side of graph) 30 ng/ml IL-18 for 22 h in the presence of irradiated splenocytes and MOG35-55 peptide ([…], SEQ ID NO: 4) (5 μg/ml). IFN-γ production was measured by ELISA. Asterisks denote P<0.0001 compared to no inhibitor peptide.
To investigate the ability of the MyD88 inhibitor linear peptide (termed either MIP or MyDI) to inhibit MyD88 activity in T-cells in vitro, the secretion of IFN-γ by MOG-specific T cells in response to IL-18 stimulation was tested. The signaling of IL-18 trough the IL-18 receptor is MyD88 dependent. […] Cells were then stimulated with IL-18, and IFN-γ levels in the supernatants were analyzed after 24 h. […]

[3] = system: NFκB p65 nuclear translocation; assay: NFκB p65 nuclear translocation in HeLa cells stimulated with TNFα or IL-1β; format: cell-based; settings: HeLa cells
Protocol: FIG. 6. HeLa assay showing specificity of MyD88 inhibition. HeLa cells were stimulated with recombinant TNFα or IL-1β and NFkB localization was determined with anti-p65 conjugated to rhodamine. The percent of cells with nuclear localization was determined and is shown in the bar graphs on the right. 6A: Top row, HeLa cells transduced with control shRNA. Second row, shRNA knock-down of MyD88. 6B: Top row, HeLa cells treated with MyD88 inhibitor linear peptide. Bottom row, HeLa cells treated with scrambled control version of the MyD88 inhibitor linear peptide (SEQ ID NO: 5).
FIG. 7. HeLa assay showing specificity of MyD88 inhibition by 4×4MyDI. HeLa cells were stimulated with recombinant TNFα or IL-1b and NFkB localization was determined with anti-p65 conjugated to rhodamine. The percent of cells with nuclear localization was determined, and is shown in the bar graphs on the right. Top row, HeLa cells with no pre-treatment. Second row, HeLa cells pre-treated for 30 min with the backbone cyclic 4×4MyDI compound.
Lead compounds were further tested in vitro to confirm the specificity of the inhibition. A fluorescence-based in vitro activity assay that determines the degree of activation of the transcription factor NFκB was established. In this assay, cells are treated with either TNFα or IL-1b, both inflammatory cytokines that activate NFκB. Upon activation, the p65 unit of the NFκB transcription factor re-locates from the cytoplasm to the nucleus. Using fluorescently-tagged antibodies to p65, the cytoplasmic vs. nuclear localization of the factor is determined. Importantly, since the signaling of IL-1b, but not TNFα, is dependent on MyD88, this assay can establish the specificity of the inhibition achieved using the lead compounds.
Cells were activated with either IL-1β (the signaling of the IL-1 receptor is dependent on MyD88), or with TNFα (signaling of its receptor is independent of MyD88). The activation was measured by the translocation of NFκB from the cytoplasm to the nucleus. As a positive control, a stable MyD88 knock-down cell line was established using lentiviral encoded shRNA.
Using the same system, when cells were treated with the backbone cyclic peptide 4×4MyDI, activation by IL-1β was blocked, however when treated with TNFα the activation was not inhibited.

MyD88 TIR domain = target: T2, MyD88 TIR domain (Homo sapiens, UniProt Q99836); assay: Competition assay: binding of biotinylated linear BB loop peptide to MyD88 TIR domain; settings: different concentrations
T2 construct: made in house
Protocol: FIG. 9. 4×4MyDI binds to the BB loop region of the MyD88 TIR domain. A 96 well plate was coated with recombinant MyD88 (8 μg/ml) in coating buffer vs. buffer alone, and wells were blocked with 1% BSA. Biotinylated linear peptide was added to all wells (125 μg/ml) followed by streptavidin-HRP and substrate. The signal of linear peptide bound to its target was inhibited by incubation with the 4×4MyDI (*P<0.05) but not by incubation with the scrambled version of the linear peptide (SEQ ID NO: 5).
The ability of the 4×4MyDI compound to bind to the target region (the BB loop) of the MyD88 TIR domain, was evaluated using a newly-designed assay. For this goal a competition assay was established that tests the ability of the 4×4MyDI compound to prevent the binding of the biotinylated linear BB loop peptide to the MyD88 TIR domain. The MyD88 TIR domain was produced as a recombinant protein fused to the SUMO3 protein (Accession # NP_008867), purified, and attached to a 96 well plate. Binding of biotinylated RDVLPGT (SEQ. ID NO: 1) peptide was detected using streptavidin conjugated to horse radish peroxidase (HRP) followed by the addition of HRP substrate.

[4] = Metabolic stability in plasma (quantitative HPLC); format: in vitro ADME, human; settings: plasma; 4×4MyDI: first two hours
Protocol: FIGS. 17A and 17B. 4×4MyDI is metabolically stable in comparison to the linear MyDI peptide. 4×4MyDI vs. linear MyDI heptapeptide were incubated independently in either human plasma […] or human plasma supplemented with Brush Border Membrane Vesicles (BBMV, 18B). At various time points the solution was sampled and the amount of remaining compound was determined by quantitative HPLC.
Peptide backbone cyclization confers metabolic stability on peptides that are inherently susceptible to degradation by proteases. […] The stability of the compounds was then tested in plasma enriched with Brush Border Membrane Vesicles (BBMV). This system models the degradative conditions of the intestine.

T1 sequence (P22366 whole entry): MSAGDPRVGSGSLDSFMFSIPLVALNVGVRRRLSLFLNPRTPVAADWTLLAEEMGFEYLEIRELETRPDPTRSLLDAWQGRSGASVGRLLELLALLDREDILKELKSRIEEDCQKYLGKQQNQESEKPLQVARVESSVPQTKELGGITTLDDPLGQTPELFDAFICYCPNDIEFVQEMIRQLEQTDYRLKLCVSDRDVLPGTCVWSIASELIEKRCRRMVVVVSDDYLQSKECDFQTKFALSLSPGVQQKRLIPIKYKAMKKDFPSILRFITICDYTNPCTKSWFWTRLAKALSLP
T2 sequence (Q99836 151-296): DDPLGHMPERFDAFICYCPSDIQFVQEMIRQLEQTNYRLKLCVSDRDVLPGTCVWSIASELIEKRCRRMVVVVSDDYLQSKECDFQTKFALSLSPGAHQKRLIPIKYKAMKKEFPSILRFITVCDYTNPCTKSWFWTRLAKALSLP

## 6×6 bridge peptide: backbone cyclic peptide of Formula IV with m=6, n=6 (W[Gly(Nα-(CH2)6-NH2)]RDVL[Gly(Nα-(CH2)6-NH2)]GT; bridge 2-7 via CO)
[1]
  MyD88 inhibitory activity (reduction in TNFα production): greatest MyD88 inhibitory activity
[2]
  inhibition of TNFα production: inhibited the human macrophage production of TNFα

## PTDLVRG [MIPscr, reference compound]
MyD88; 20 mM peptide (so in the source), IL-18 stimulation, supernatants after 24 h
  IL-18-stimulated IFNγ level: had no effect
[3]; TNFα (MyD88 independent)
  Percent p65 nuclear translocation, TNFα: 90%
[3]; no stimulation
  Percent p65 nuclear translocation, No stimulation: 0%
MyD88 TIR domain
  inhibition of binding of the biotinylated peptide to the MyD88 TIR domain: did not inhibit

## RDVLPGT [MIP, Arg-Asp-Val-Leu-Pro-Gly-Thr, reference compound]
MyD88; T cells with APC presenting MOG35-55 peptide plus IL-18
  reduction of the level of IFN-γ: 30-35%
[4]
  stability in plasma: disappears rapidly
